Assay [1] concerns the target T1, human RORγt ligand binding domain (RORγt LBD) (Homo sapiens, UniProt P51449).
T1 construct: His-tag (N); TurboTEV protease cleavage site (ENLYFQG) (N); made in house; host or cells: E. coli (pHIS1, a modified pET expression vector)
T1 sequence (P51449 with tags, fused parts or gaps): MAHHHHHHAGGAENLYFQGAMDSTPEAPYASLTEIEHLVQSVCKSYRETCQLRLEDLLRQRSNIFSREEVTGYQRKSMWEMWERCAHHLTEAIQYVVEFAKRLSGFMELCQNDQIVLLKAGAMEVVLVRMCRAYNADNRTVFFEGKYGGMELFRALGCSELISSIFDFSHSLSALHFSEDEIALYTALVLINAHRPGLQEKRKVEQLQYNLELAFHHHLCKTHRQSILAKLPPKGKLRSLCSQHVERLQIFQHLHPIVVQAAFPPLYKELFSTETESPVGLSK
Kind of assay: RORγt ThermoFluor assay. The settings on record: estimated from thermal shift concentration response. As for the experimental part: This approach is applicable to a wide variety of systems, and rigorous in theoretical interpretation through quantitation of equilibrium binding constants (KD).
The shift in the melting point described as a ΔTm is proportional to the concentration and affinity of the ligand.
Protein and compound solutions are dispensed into black 384-well polypropylene PCR microplates (Abgene) and overlayed with silicone oil (1 μL, Fluka, type DC 200) to prevent evaporation.
Bar-coded assay plates are robotically loaded onto a thermostatically controlled PCR-type thermal block and then heated at a typical ramp-rate of 1° C./min for all experiments.
Fluorescence was measured by continuous illumination with UV light (Hamamatsu LC6) supplied via fiber optic and filtered through a band-pass filter (380-400 nm; >6 OD cutoff). Fluorescence emission of the entire 384-well plate was detected by measuring light intensity using a CCD camera (Sensys, Roper Scientific) filtered to detect 500±25 nm, resulting in simultaneous and independent readings of all 384 wells. Images were collected at each temperature, and the sum of the pixel intensity in a given area of the assay plate was recorded versus temperature. Reference wells contained RORγt without compounds, and the assay conditions were as follows: • 0.065 mg/mL RORγt • 60 μM 1,8-ANS • 100 mM Hepes, pH 7.0 • 10 mM NaCl • 2.5 mM GSH • 0.002% Tween-20
Project compounds were arranged in a pre-dosed mother plate (Greiner Bio-one) wherein compounds are serially diluted in 100% DMSO by 1:2 from a high concentration of 10 mM over 12 columns within a series (column 12 is a reference well containing DMSO, no compound). The compounds were robotically dispensed directly into assay plates (1×=46 nL) using a Hummingbird capillary liquid handling instrument (Digilab). Following compound dispense, protein and dye in buffer was added to achieve the final assay volume of 3 μL, followed by 1 μL of silicone oil.

Assay [2] concerns the target T2, full-length human RORγt (Homo sapiens, UniProt P51449).
T2 construct: expressed in transfected cells; host or cells: HEK293T, transiently transfected with pCMV-BD-ROR
T2 sequence (P51449 1-497 isoform P51449-2): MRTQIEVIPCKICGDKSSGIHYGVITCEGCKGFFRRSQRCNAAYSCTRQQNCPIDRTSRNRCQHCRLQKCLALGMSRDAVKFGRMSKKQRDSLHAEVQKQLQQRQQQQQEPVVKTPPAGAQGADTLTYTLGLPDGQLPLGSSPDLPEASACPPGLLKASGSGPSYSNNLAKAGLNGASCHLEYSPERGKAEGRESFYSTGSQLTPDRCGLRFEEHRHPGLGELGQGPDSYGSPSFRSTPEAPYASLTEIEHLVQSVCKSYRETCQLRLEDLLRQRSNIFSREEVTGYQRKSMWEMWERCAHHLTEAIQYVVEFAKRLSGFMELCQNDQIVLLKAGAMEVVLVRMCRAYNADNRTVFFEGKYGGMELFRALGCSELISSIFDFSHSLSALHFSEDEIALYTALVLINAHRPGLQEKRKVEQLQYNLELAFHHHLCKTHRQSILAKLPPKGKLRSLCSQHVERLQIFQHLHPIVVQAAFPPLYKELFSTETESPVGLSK
Kind of assay: RORγt (full-length human) Reporter Assay, Conditions A. It counts as cell-based. The settings on record: for IC50: HEK293T cells, GAL4-DBD-RORγt, luciferase, read-out: RORγt (FL) Reporter Assay A, IC50; for inhibition at 6 µM: read-out: RORγt (FL) Reporter Assay A, % inhibition @ 6 μM, 6 μM compound; for inhibition at 0.67 µM: 0.67 μM compound concentration, read-out: RORγt (FL) Reporter Assay A, % inhibition (** at 0.67 μM). How it is done:
After overnight (16 to 20 hours) incubation, media were removed and cells were lysed with 20 μL 1× Passive Lysis Buffer (Promega) for 10-15 minutes. Luminescence was measured using a BMG LUMIstar OPTIMA plate reader, after addition of 75 μL/well firefly luciferase buffer, followed by 75 μL/well Renilla luciferase buffer. To calculate the effect of compounds on RORγt activity, firefly values were normalized against values of DMSO only and values of reference compound at saturating concentration, then further normalized against Renilla signals. IC50s were generated by plotting final Renilla normalized data against compound concentration and percent inhibition was calculated against DMSO control.
(Reporter assays use an easily measured gene product as a stand-in for the process of interest.)

Regarding `CC[C@H](NS(=O)(=O)c1ccc(-c2sc(-c3nnc(CC(C)(C)C#N)o3)nc2C(=O)N2CCC(F)CC2)c(Cl)c1Cl)C(F)(F)F` [Example 1/1, (S)-2,3-Dichloro-4-(2-(5-(2-cyano-2-methylpropyl)-1,3,4-oxadiazol-2-yl)-4-(4-fluoropiperidine-1-carbonyl)thiazol-5-yl)-N-(1,1,1-trifluorobutan-2-yl)benzenesulfonamide], the Kd – broadly, a measure of binding affinity in units of concentration – in assay [1] is 1 nM. For the same compound, in assay [2], the 50% inhibitory concentration (IC50) (as a rule, the point on the concentration scale where inhibition reaches its midpoint) was 10 nM and the inhibition (usually the drop in the measured response relative to a control, in per cent) at 6 µM was 106%.
Regarding `COC1(c2nnc(-c3nc(C(=O)N4CCC(F)(F)CC4)c(-c4ccc(S(=O)(=O)N[C@@H](C)C(F)(F)F)c(Cl)c4Cl)s3)o2)CC1` [Example 1/2, (S)-2,3-Dichloro-4-(4-(4,4-difluoropiperidine-1-carbonyl)-2-(5-(1-methoxycyclopropyl)-1,3,4-oxadiazol-2-yl)thiazol-5-yl)-N-(1,1,1-trifluoropropan-2-yl)benzenesulfonamide], the dissociation constant Kd in assay [1] was 0.42 nM. Moreover, in assay [2], the inhibition at 0.67 µM turned out to be 105% and the IC50 was 11 nM.
As for `C[C@H](NS(=O)(=O)c1ccc(-c2sc(-c3nnc(C4(C(F)(F)F)CC4)o3)nc2C(=O)N2CCC(F)(F)CC2)c(Cl)c1Cl)C(F)(F)F` [Example 1/3, (S)-2,3-Dichloro-4-(4-(4,4-difluoropiperidine-1-carbonyl)-2-(5-(1-(trifluoromethyl)cyclopropyl)-1,3,4-oxadiazol-2-yl)thiazol-5-yl)-N-(1,1,1-trifluoropropan-2-yl)benzenesulfonamide], in assay [1], the Kd is 0.7 nM. Also, in assay [2], the inhibition at 0.67 µM turned out to be 103% and the 50% inhibitory concentration (IC50) is 4.5 nM.
As to `C[C@H](NS(=O)(=O)c1ccc(-c2sc(-c3nnc(CS(C)(=O)=O)o3)nc2C(=O)N2CCC(F)(F)CC2)c(Cl)c1Cl)C(F)(F)F` [Example 1/4, (S)-2,3-Dichloro-4-(4-(4,4-difluoropiperidine-1-carbonyl)-2-(5-((methylsulfonyl)methyl)-1,3,4-oxadiazol-2-yl)thiazol-5-yl)-N-(1,1,1-trifluoropropan-2-yl)benzenesulfonamide], the dissociation constant (Kd) in assay [1] was 4.7 nM. Besides, in assay [2], the IC50 came to 55 nM and the inhibition at 6 µM was determined as 101%.
For the compound `CC[C@H](NS(=O)(=O)c1ccc(-c2sc(-c3nnc(CC(C)(C)C(=O)O)o3)nc2C(=O)N2CCCC[C@@H]2C)c(Cl)c1Cl)C(F)(F)F` [Example 2, 3-(5-(5-(2,3-Dichloro-4-(N—((S)-1,1,1-trifluorobutan-2-yl)sulfamoyl)phenyl)-4-((S)-2-methylpiperidine-1-carbonyl)thiazol-2-yl)-1,3,4-oxadiazol-2-yl)-2,2-dimethylpropanoic acid], in assay [1], the equilibrium dissociation constant (Kd) is 0.003 nM. Besides, in assay [2], the half-inhibitory concentration (IC50) worked out at 100 nM and the inhibition at 6 µM came out at 104%.
For the compound `CC[C@H](NS(=O)(=O)c1ccc(-c2sc(-c3nnc(C(C)(C)O)o3)nc2C(=O)N2CCC(F)CC2)c(Cl)c1Cl)C(F)(F)F` [Example 6/1, (S)-2,3-Dichloro-4-(4-(4-fluoropiperidine-1-carbonyl)-2-(5-(2-hydroxypropan-2-yl)-1,3,4-oxadiazol-2-yl)thiazol-5-yl)-N-(1,1,1-trifluorobutan-2-yl)benzenesulfonamide], in assay [2] (read-out: RORγt (FL) Reporter Assay A, % inhibition (* at 2 μM), 2 μM compound concentration (footnote *)), the inhibition at 2 µM is 102%.
As to `CC[C@H](NS(=O)(=O)c1ccc(-c2sc(-c3noc(CC(C)(C)C(=O)O)n3)nc2C(=O)N2CCCC[C@@H]2C)c(Cl)c1Cl)C(F)(F)F` [Example 10, 3-(3-(5-(2,3-Dichloro-4-(N—((S)-1,1,1-trifluorobutan-2-yl)sulfamoyl)phenyl)-4-((S)-2-methylpiperidine-1-carbonyl)thiazol-2-yl)-1,2,4-oxadiazol-5-yl)-2,2-dimethylpropanoic acid], in assay [2], the half-maximal inhibitory concentration (IC50) came to 9 nM and the inhibition at 6 µM worked out at 104%.
For `CC[C@H](NS(=O)(=O)c1ccc(-c2sc(-c3noc(CC(C)(C)C(=O)O)n3)nc2C(=O)N2CCCC[C@@H]2C)c(C(F)F)c1Cl)C(F)(F)F` [Example 10/4, 3-(3-(5-(3-Chloro-2-(difluoromethyl)-4-(N—((S)-1,1,1-trifluorobutan-2-yl)sulfamoyl)phenyl)-4-((S)-2-methylpiperidine-1-carbonyl)thiazol-2-yl)-1,2,4-oxadiazol-5-yl)-2,2-dimethylpropanoic acid] the same measures were 33 nM and 99%.
For the compound `CC(C)(O)c1nnc(-c2nc(C(=O)N3CCC(F)(F)CC3)c(-c3ccc(C(O)(C(F)(F)F)C(F)(F)F)cc3C(F)F)s2)o1` [Example 28, (5-(2-(difluoromethyl)-4-(1,1,1,3,3,3-hexafluoro-2-hydroxypropan-2-yl)phenyl)-2-(5-(2-hydroxypropan-2-yl)-1,3,4-oxadiazol-2-yl)thiazol-4-yl)(4,4-difluoropiperidin-1-yl)methanone], in assay [1], the dissociation constant (Kd) was 5.5 nM.
Same read-out and setting: the figure for `C[C@H]1CCCN1C(=O)c1nc(-c2nnc(C(C)(C)O)o2)sc1-c1ccc(C(O)(C(F)(F)F)C(F)(F)F)cc1C(F)F` [Example 29, (S)-(5-(2-(difluoromethyl)-4-(1,1,1,3,3,3-hexafluoro-2-hydroxypropan-2-yl)phenyl)-2-(5-(2-hydroxypropan-2-yl)-1,3,4-oxadiazol-2-yl)thiazol-4-yl)(2-methylpyrrolidin-1-yl)methanone] is 17 nM; for `C[C@H]1CCCN1C(=O)c1nc(-c2noc(C(C)(C)O)n2)sc1-c1ccc(C(O)(C(F)(F)F)C(F)(F)F)cc1C(F)F` [Example 30, (S)-(5-(2-(difluoromethyl)-4-(1,1,1,3,3,3-hexafluoro-2-hydroxypropan-2-yl)phenyl)-2-(5-(2-hydroxypropan-2-yl)-1,2,4-oxadiazol-3-yl)thiazol-4-yl)(2-methylpyrrolidin-1-yl)methanone] it is 22 nM.
The same measure, in the same setting: for `Cc1cc(C(O)(C(F)(F)F)C(F)(F)F)ccc1-c1sc(-c2nnc(C(C)(C)O)o2)nc1C(=O)N1CCC[C@@H]1C` [Example 31, (S)-(5-(4-(1,1,1,3,3,3-hexafluoro-2-hydroxypropan-2-yl)-2-methylphenyl)-2-(5-(2-hydroxypropan-2-yl)-1,3,4-oxadiazol-2-yl)thiazol-4-yl)(2-methylpyrrolidin-1-yl)methanone] the value was 18 nM; for `Cc1cc(C(O)(C(F)(F)F)C(F)(F)F)ccc1-c1sc(-c2noc(C(C)(C)O)n2)nc1C(=O)N1CCC[C@@H]1C` [Example 32, (S)-(5-(4-(1,1,1,3,3,3-hexafluoro-2-hydroxypropan-2-yl)-2-methylphenyl)-2-(5-(2-hydroxypropan-2-yl)-1,2,4-oxadiazol-3-yl)thiazol-4-yl)(2-methylpyrrolidin-1-yl)methanone], 27 nM.
